# According to paper PMC4669789, “Selective inhibition of HDAC8 decreases neuroblastoma growth in vitro and in vivo and enhances retinoic acid-mediated differentiation” (Cell Death & Disease, 2015):
# “And” between values parts separate entries of the source, which are not always exact repeats. Equal entries are not always repeated.
# Legend:
# HDAC2 = HDAC2 (Homo sapiens, UniProt Q92769); assay: In vitro HDAC activity assay (Reaction Biology); type: biochemical; conditions: cell-free; read-out: IC50 values of HDAC8 inhibitors, HDAC2
# Experimental: (§1) Peptide substrate was conjugated with AMC. […] The HDAC reaction was performed at 30 °C for 2 h before adding the developer reagent. The free AMC was detected with excitation of 360 nm and emission 460 nm at kinetic mode for 90 min. IC50 values were calculated with GraphPad Prism version 3.0a (GraphPad Software Inc., San Diego, CA, USA).
# HDAC6 = biological target: T1, HDAC6 (Homo sapiens, UniProt Q9UBN7); assay: In vitro HDAC activity assay (Reaction Biology); type: biochemical
# T1 sequence (Q9UBN7 1-1215): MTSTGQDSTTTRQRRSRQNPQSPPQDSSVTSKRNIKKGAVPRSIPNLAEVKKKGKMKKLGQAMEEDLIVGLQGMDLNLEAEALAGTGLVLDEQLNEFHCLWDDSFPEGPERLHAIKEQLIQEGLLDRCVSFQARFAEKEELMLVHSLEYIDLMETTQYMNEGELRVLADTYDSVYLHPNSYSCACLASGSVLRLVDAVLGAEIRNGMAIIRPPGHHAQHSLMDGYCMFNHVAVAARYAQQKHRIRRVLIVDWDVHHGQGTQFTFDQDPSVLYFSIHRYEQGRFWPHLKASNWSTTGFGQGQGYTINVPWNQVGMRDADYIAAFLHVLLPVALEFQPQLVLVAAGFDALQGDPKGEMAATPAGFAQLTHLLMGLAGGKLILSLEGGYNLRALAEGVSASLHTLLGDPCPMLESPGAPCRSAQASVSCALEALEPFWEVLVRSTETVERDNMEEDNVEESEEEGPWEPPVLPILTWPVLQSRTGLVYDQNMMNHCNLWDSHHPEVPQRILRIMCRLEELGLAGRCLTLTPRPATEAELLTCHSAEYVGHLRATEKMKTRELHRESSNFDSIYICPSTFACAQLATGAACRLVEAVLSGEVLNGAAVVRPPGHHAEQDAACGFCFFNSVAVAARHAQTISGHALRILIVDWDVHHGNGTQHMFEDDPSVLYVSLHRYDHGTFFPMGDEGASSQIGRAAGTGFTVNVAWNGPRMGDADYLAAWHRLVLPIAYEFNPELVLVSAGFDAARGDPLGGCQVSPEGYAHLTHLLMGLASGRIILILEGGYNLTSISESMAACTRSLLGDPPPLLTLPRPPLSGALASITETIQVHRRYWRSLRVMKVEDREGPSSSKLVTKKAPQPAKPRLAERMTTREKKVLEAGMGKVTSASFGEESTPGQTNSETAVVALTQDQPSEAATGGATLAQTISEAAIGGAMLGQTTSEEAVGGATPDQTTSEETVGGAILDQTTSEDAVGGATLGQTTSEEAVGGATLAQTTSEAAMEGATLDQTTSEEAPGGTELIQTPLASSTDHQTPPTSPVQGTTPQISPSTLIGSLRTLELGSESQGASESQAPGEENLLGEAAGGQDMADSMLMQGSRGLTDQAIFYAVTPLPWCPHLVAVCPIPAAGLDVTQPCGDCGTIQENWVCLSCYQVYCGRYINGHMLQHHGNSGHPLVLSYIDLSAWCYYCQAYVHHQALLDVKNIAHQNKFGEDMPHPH
# Experimental: as §1
# HDAC8 = biological target: T2, HDAC8 (Homo sapiens, UniProt Q9BY41); assay: In vitro HDAC activity assay (Reaction Biology); type: biochemical; conditions: cell-free; read-out: IC50 values of HDAC8 inhibitors, HDAC8
# T2 sequence (Q9BY41 14-324 limits assumed): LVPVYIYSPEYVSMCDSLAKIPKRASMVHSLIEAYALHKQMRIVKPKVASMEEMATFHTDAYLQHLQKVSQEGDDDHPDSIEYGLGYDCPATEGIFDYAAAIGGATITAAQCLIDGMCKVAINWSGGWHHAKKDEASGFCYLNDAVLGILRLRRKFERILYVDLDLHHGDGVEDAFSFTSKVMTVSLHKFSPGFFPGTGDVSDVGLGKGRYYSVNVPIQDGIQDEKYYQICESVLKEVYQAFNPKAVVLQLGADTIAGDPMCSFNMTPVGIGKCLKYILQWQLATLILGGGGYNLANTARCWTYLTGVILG
# Experimental: as §1
# [1] = Determination of MTD and dose-limiting toxicities; conditions: NMRI Foxn1 nude, mouse, in vivo, ip
# Experimental: (§2) Each dose was tested in a cohort of three animals. Resulting MTDs were validated within cohorts of eight animals for each inhibitor. […] As a reference, the blood of 12 untreated NMRI Foxn1 nude mice was analyzed. […] Vorinostat was used as a control for unselective HDAC inhibition.
# (§3) DLTs were monitored by observation of general condition and determination of body weight. We used several criteria for objectively measuring DLT. These included a decrease in body weight of ≥20% compared with baseline body weight, blood analysis of standard parameters for clinical chemistry and hematology (central laboratory of University Hospital Heidelberg, Heidelberg, Germany) and organ histopathology (formalin-fixed, paraffin-embedded organs), by H&E stain for the detection of necrosis (Prof. Dr. AD Gruber, Institute for Veterinary Pathology, Berlin, Germany).
# NMRI Foxn1 nude mice [2] = assay: Determination of MTD and dose-limiting toxicities
# Experimental: as §2, §3
# NMRI Foxn1 nude mice [3] = assay: Blood parameters (clinical chemistry, hematology) at MTD; type: in vivo; conditions: n=8, mean ±S.D.
# Experimental: as §2, §3
# [4] = Determination of inhibitor plasma half-life; type: in vivo, mouse
# PBMCs = assay: Whole lysine acetylation in PBMC after intraperitoneal administration (FACS); type: in vivo, mouse; conditions: 50 mg/kg/d intraperitoneal; solvent 32.1
# Experimental: Both inhibitors were intraperitoneally injected into NMRI Foxn1 nude mice in increasing doses from 40 up to 400 mg/kg per day for 2 × 5 days. Each dose was tested in a cohort of three animals. Resulting MTDs were validated within cohorts of eight animals for each inhibitor. […] As a reference, the blood of 12 untreated NMRI Foxn1 nude mice was analyzed. […] Vorinostat was used as a control for unselective HDAC inhibition.
# Whole blood (100 μl) was collected from the femoral vein of untreated athymic NMRI nude mice (HsdCpb:NMRI-Foxn1^nu; Harlan Laboratories Inc.), and respective animals were killed 2 h after intraperitoneal injection of substances. For the analysis of whole acetylation levels, mice were killed at half-life time of the inhibitors. Whole blood with heparin was added to RBC lysis buffer (diluted 1 : 10) (BioLegend, San Diego, CA, USA) at a ratio of 1 : 4. Next, red blood cell lysis was performed according to the manufacturer's instructions. PBMCs were lysed in SDS lysis buffer for western blot or processed for FACS analysis.
# Cells were permeabilized by incubation with 50 μg/ml digitonin for 6 min at RT. Cells were incubated with primary antibody overnight at 4 °C. After staining with Cy3-conjugated anti-rabbit antibody, cells were analyzed by FACS using CellQuest software (BD Biosciences, San Jose, CA, USA).
# BE(2)-C cells = assay: Western blot of histone 4, α-tubulin and SMC3 acetylation; type: cell-based, human
# Experimental: Western blot analysis was performed as described previously.[15] For detection of phosphoproteins, PhosStop (Roche, Penzberg, Germany) was added to the lysis buffer.
# [5] = working concentrations: 40 μM Cpd2, 4 μM PCI-34051 and PCI-48000
# Sequence of HDAC2 (Q92769 9-322 limits assumed): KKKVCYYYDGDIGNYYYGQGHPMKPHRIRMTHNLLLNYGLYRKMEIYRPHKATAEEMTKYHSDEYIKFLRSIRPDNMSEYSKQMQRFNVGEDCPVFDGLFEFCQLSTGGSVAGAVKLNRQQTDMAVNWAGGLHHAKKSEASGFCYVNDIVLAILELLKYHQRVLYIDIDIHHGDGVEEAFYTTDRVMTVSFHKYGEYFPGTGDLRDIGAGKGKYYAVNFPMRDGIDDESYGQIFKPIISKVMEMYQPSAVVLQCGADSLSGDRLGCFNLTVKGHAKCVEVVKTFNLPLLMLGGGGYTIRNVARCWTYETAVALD
structure (smiles),measurement,setting,value
"O=C(NO)c1cccc2ccccc12 [Cpd2, 1-naphthohydroxamic acid]",IC50,HDAC2,> 75.6 µM
same,IC50,"HDAC6; cell-free, read-out: IC50 values of HDAC8 inhibitors, HDAC6",75.6 µM
same,concentrations above which HDAC6 and HDAC1 are potential off-target HDACs,HDAC6; from cell-free assays of HDACs 1–11,above 75 μM
same,IC50,HDAC8,34 µM and 33.7 µM
same,MTD,[1],50 mg/kg/day
same,Dose-limiting toxicities (DLTs),"NMRI Foxn1 nude mice [2]; intraperitoneal, increasing doses 40 up to 400 mg/kg per day",weight loss and signs of liver toxicity
same,body weight and blood parameters at MTD,"NMRI Foxn1 nude mice [2]; mouse, in vivo",neither body weight (Figure 2a) nor blood parameters were critically changed
same,Hematocrit,NMRI Foxn1 nude mice [3]; normal range 0.3–0.4,0.4±0.01 l/l
same,Uric acid,NMRI Foxn1 nude mice [3]; normal range 0.4–3.2,0.9 ± 1.0 mg/dL
same,Leukocytes,NMRI Foxn1 nude mice [3]; normal range 1.8–6.1,4.4 ± 1.8 nL⁻¹
same,Calcium,NMRI Foxn1 nude mice [3]; normal range 2.1–2.4,2.4 ± 0.4 mmol/L
same,Potassium,NMRI Foxn1 nude mice [3]; normal range 3.8–6.4,6.9 ± 2.2 mmol/L
same,Erythrocytes,NMRI Foxn1 nude mice [3]; normal range 5.5–8.2,7.6 ± 0.3 pL⁻¹
same,Hemoglobin,NMRI Foxn1 nude mice [3]; normal range 9.4–12.7,12.4 ± 0.7 g/dL
same,Urea,NMRI Foxn1 nude mice [3]; normal range 17.4–38.3,23.5 ± 6.4 mg/dL
same,AP,NMRI Foxn1 nude mice [3]; normal range 62.5–117.6,123.8±35.8 U/l
same,Chloride,NMRI Foxn1 nude mice [3]; normal range 97.3–109.7,99.9 ± 2.2 mmol/L
same,Sodium,NMRI Foxn1 nude mice [3]; normal range 123.4–135.7,136.8 ± 5.3 mmol/L
same,Glucose,NMRI Foxn1 nude mice [3]; normal range 176.8–238.6,187.8 ± 39.1 mg/dL
same,Thrombocytes,NMRI Foxn1 nude mice [3]; normal range 242.5–806.8,682.0 ± 151.1 nL⁻¹
same,GGT,NMRI Foxn1 nude mice [3]; normal range −1.9 to 1.0,−2.0±1.0 U/l
same,half-life,"[4]; NMRI Foxn1 nude, mouse, plasma, ip, 100 mg/kg, intraperitoneal 100 mg/kg, NMRI Foxn1 nude mice, read-out: half-life in blood plasma",~15 min
same,plasma peak concentration,"[4]; intraperitoneal, single dose of 100 mg/kg, mice",~ 30 μM
same,"whole acetyl-lysine mean fluorescent values (Blank-corrected), PBMCs",PBMCs,39.2
same,tubulin acetylation (HDAC6 off-target activity),"BE(2)-C cells; increasing concentrations far above IC50 values (up to 200 μM Cpd2, 100 μM PCI-34051)",induced tubulin acetylation
same,SMC3 acetylation (HDAC8 substrate),BE(2)-C cells; [5],increase in acetylation level
same,histone 4 acetylation (HDAC1-3 substrate),BE(2)-C cells; [5],absence of HDAC1-3 substrate acetylation
same,tubulin acetylation (HDAC6 substrate),BE(2)-C cells; [5],absence of HDAC6 substrate acetylation
